Data on 41 compounds can be found in PubChem BioAssay AID608 (Sanford-Burnham Center for Chemical Genomics, 2007).

Each structure is given as a SMILES string. Calls of active or inactive are those of the source. No rule for the calls is given here.

Usually Kd stands for the equilibrium constant for the complex coming apart.

The experiment deals with Peptidyl-prolyl cis-trans isomerase FKBP1A (Homo sapiens) (UniProt P62942). Kind of experiment: FKBP12 binders, biophysical, NMR detection (AID 608). As to conditions: NMR binding, purified FKBP12.
Chain of Peptidyl-prolyl cis-trans isomerase FKBP1A (Homo sapiens) (P62942 whole entry, looked up): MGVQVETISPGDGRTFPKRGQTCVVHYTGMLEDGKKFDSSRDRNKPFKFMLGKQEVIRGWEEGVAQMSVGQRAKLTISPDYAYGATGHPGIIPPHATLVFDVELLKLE
Turning to `Cc1nnc(SCc2ccon2)n1-c1ccccc1`, the Kd is 0.0385 mM. The same measure for `NC(=O)CSc1ccccn1`: > 4 mM (inactive); for `COc1ccc(-c2coc3c(OC)c(OC)cc(OC)c3c2=O)cc1`: > 4 mM (inactive). The same measure for `C#CCCCCCCCCCCCC(O)CC(O)COC(C)=O` (stereo unspecified): > 4 mM (inactive).

As to `CCOc1ccc(Cl)cc1S(=O)(=O)N1CCCC1`, the Kd is > 4 mM (inactive).

In the case of `NC(N)=Nc1nc2ccccc2o1`, the Kd is > 4 mM (inactive). The same measure for `Cc1cc(C)nc(/N=C(/N)N2CCOCC2)n1`: > 4 mM (inactive); for `C/C1=C/CC(C)(C)/C=C/C/C(C)=C/CC1`: > 4 mM (inactive).

In the case of `COC(=O)/C(=C1\OC(=O)C(c2ccccc2)C1=O)c1ccccc1` (stereo unspecified), the Kd was > 4 mM (inactive). For `NC(=O)CSc1nc2[nH]ncc2c(=O)[nH]1`, the Kd was > 4 mM (inactive). The same measure for `O=C(NCc1ccccc1)c1cnsn1`: > 4 mM (inactive); for `O=C(c1cnsn1)N1CCN(c2ccccc2)CC1`: > 4 mM (inactive). The same measure for `O=C(Nc1ccccc1)c1cccc(N2C(=O)CCC2=O)c1`: > 4 mM (inactive); for `CC(C)[C@@H]1CC[C@@H](C)CC1=O`: > 4 mM (inactive). With `OC1CCN(c2nccc(C(F)(F)F)n2)CC1`, the Kd was > 4 mM (inactive). In the case of `O=C(Nc1ccccc1)N1CCOCC1` it was > 4 mM (inactive). The same measure for `Cc1nc(SCC#N)c2c(C)c(C)sc2n1`: > 4 mM (inactive); for `O=C(COc1ccccc1Cl)N1CCCC1`: > 4 mM (inactive). Regarding `CSc1nnc(-c2ccccc2NC(C)=O)o1`, the Kd is > 4 mM (inactive). For the compound `CC(=O)Nc1ccc(C(=O)n2nc(C)cc2C)cc1`, the Kd is > 4 mM (inactive). In the case of `COc1cc2c(cc1OC)C(C)NCC2` (stereo unspecified) it was > 4 mM (inactive); in that of `Cc1cc2c(nn1)CCc1nonc1-2`, > 4 mM (inactive). For the compound `Nc1scc[n+]1CC(=O)[O-]`, the Kd is > 4 mM (inactive). `CC1=NCCc2c1[nH]c1cc(O)ccc21`: the Kd is > 4 mM (inactive). Turning to `CN1CCN(C(=O)c2ccccc2N)CC1`, the Kd was > 4 mM (inactive). On to `CCC(C)C(=O)O[C@@H]1C[C@@]2(C)[C@H](c3ccoc3)OC(=O)CC23OC2(C)OC34[C@H](OC(=O)C(C)C)[C@@]3(O)[C@@H](OC(=O)C5(C)OC5C)[C@@]5(C)C[C@]3(O)[C@@](C)([C@H]5CC(=O)OC)C14O2` (stereo partly specified), for which the Kd is > 4 mM (inactive). Regarding `O=C1NC(=O)C(C(C[N+](=O)[O-])c2ccc(O)cc2)C(=O)N1` (stereo unspecified), the Kd is > 4 mM (inactive). In the case of `Nc1cccc(F)c1-c1ncon1`, the Kd was > 4 mM (inactive). The same measure for `COc1cc(OC)c(-c2nc3cnccc3n2C)cc1OC`: > 4 mM (inactive); for `Cc1nnc(SCc2ccccc2)[nH]c1=O`: > 4 mM (inactive); for `NS(=O)(=O)c1ccc(N=Cc2cccs2)cc1`: > 4 mM (inactive).

As to `COc1cc2occc2c2oc(=O)ccc12`, the Kd is > 4 mM (inactive). In the case of `O=C1c2ccccc2C(=O)N1Cc1ccco1` it was > 4 mM (inactive); in that of `O=C(O)c1cccc(O)c1O`, > 4 mM (inactive); in that of `Cc1cccc(C)c1NC(=O)/C=C/C(=O)O`, > 4 mM (inactive). In the case of `CCn1c(C)c(C(C)=O)c(N2CCOCC2)nc1=S`, the Kd is > 4 mM (inactive). As for `Cc1c(C(=O)OC(C)C)[nH]c2c1C(=O)CCC2`, the Kd is > 4 mM (inactive). With `CC(C)=CCc1c2c(c3occ(-c4ccc(O)cc4)c(=O)c3c1O)C=CC(C)(C)O2`, the Kd was > 4 mM (inactive). On to `Cc1cc(=O)n2ccc(CN3CCOCC3)c(O)c2n1`, for which the Kd was > 4 mM (inactive). Regarding `Cc1cc(C(=O)N2CCN(c3ccccn3)CC2)no1`, the Kd is > 4 mM (inactive).

As for `NC(=O)NC(=O)Nc1ccc(Cl)cc1`, the Kd was > 4 mM (inactive).
